In a melting point compilation (Tetko et al.; mined from patent text by program, amines drawn as free bases though some values may be those of a salt):

`C=C[C@@H]1CCC(=O)N1C(=O)[C@@H](C)Sc1cc(C(C)(C)C)c(O)c(C(C)(C)C)c1` gave a melting point of 105 to 106 °C.
With `c1ccc2c(c1)nc(N1CCOCC1)c1c(-c3noc(C4CC4)n3)ncn12` the melting point was 169 to 173 °C.
`CC(C)COc1c(-c2ccc(S(N)(=O)=O)cc2)cnn(-c2ccc(F)cc2)c1=O` showed a melting point of 132 to 136 °C.
For `Nc1cc(=O)n(Cc2ccc(Br)cc2)[nH]1`, the melting point was 139 °C.
Work on `CCOC(=O)C(C#N)(CCCN(C)CCc1ccc(C(=O)OC)cc1)c1ccc(OC)c(OC)c1` (stereo unspecified) yielded a melting point of 75 to 77 °C.
`CCn1nnnc1SCc1c(S(C)(=O)=O)ccc(C(=O)OC)c1Cl` showed a melting point of 109 to 110 °C.
For `COc1cc(C(=O)c2ccccc2F)ccc1OCc1ccccc1`, the melting point was 118 to 120 °C.
Work on `O=C(NCCO)c1cccc(-c2cccc3cc(Cc4ccc(OCC(F)(F)F)nc4)sc23)c1` yielded a melting point of 123 to 124 °C.
With `CC1(C)COC(=O)N1Br` the melting point was 118 to 120 °C.
With `O=C(O)c1ccc2ccccc2c1OCC(F)(F)F` the melting point was 172 °C.
Work on `Cc1cccc(-c2n[nH]cc2-c2ccc(F)c(-c3cn[nH]c3)c2)n1` yielded a melting point of 110 to 112 °C.
Work on `COc1ccc2c(c1)[nH]c1c(C)c(OS(=O)(=O)c3cccc4c(N(C)C)cccc34)ccc12` yielded a melting point of 174 °C.
In the case of `CC(C)=CCC(CC=C(C)C)(C(=O)NO)S(=O)(=O)c1ccc(C)cc1`, the melting point is reported as 108 to 110 °C.
Compound `CC1(C=C(Cl)Cl)CN(C(=O)Nc2ccc(OC(F)(F)F)cc2)N=C1c1ccc(Cl)cc1` (stereo unspecified) has a melting point of 138 to 141 °C.
`CCCc1nc2c(N)nc3cc(OCCOCc4ccccc4)ccc3c2s1` gave a melting point of 142 to 145 °C.
For `FC1=COC(COCc2ccccc2)C(COCc2ccccc2)O1` (stereo unspecified), the melting point was 61.5 to 63 °C.
Work on `CCS(=O)(=O)c1cc(OC)c(OC)c(C(=O)NCC2CCCN2CC2CC2)c1` (stereo unspecified) yielded a melting point of 167 to 170 °C.
In the case of `Cc1onc(NS(=O)(=O)c2ccc([N+](=O)[O-])cc2)c1Br`, the melting point is reported as 161 to 163 °C.
Compound `CCCCCCCCCCCCCCCCS(=O)(=O)NCCc1ccc(OCC(=O)O)cc1` has a melting point of 138 °C.
`COP(=O)(Cc1ccc(NC(=O)[C@H]2Cc3cc4c(cc3C(=O)[C@H](C)S2)OCO4)cc1)OC` showed a melting point of 198 to 199 °C.
`CSC1(C)C(=O)Nc2c(C(=O)c3ccccc3)cccc21` (stereo unspecified) gave a melting point of 135 to 137 °C.
Compound `O=C(O)c1ccc(Cl)cc1C(F)(F)F` has a melting point of 106 to 108 °C.
In the case of `Cc1ccc(-c2nccc3c(CC#N)cccc23)cc1`, the melting point is reported as 102 °C.
For `O=C(N1CCOCC1)n1nc2c(Cl)c(Cl)c(Cl)c(Cl)c2n1`, the melting point was 194 °C.
For `CCOc1nn(Cc2cncc(OCc3nc(-c4ccccc4)oc3C)c2)cc1CCC(=O)O`, the melting point was 133 to 134 °C.
Compound `O=C(N[C@H]1CC[C@H](CCN2CCC(c3cccc4c3CCO4)CC2)CC1)c1ccc(Cl)cc1Cl` has a melting point of 188 °C.
Compound `Cn1ccn(CC#CCn2ccnc2)c1=O` has a melting point of 106 to 109 °C.
With `CCOC(=O)c1nnc2n1-c1ccccc1C(c1ccccc1F)=NC2` the melting point was 195 to 197 °C.
With `CCOC(=O)[C@@H]1Cc2ccc([N+](=O)[O-])cc2CN1` the melting point was 94 to 95 °C.
Compound `O=c1oc2cc(OCc3nnn[nH]3)cc(OCc3nnn[nH]3)c2c2c1CC(c1ccccc1)CC2` (stereo unspecified) has a melting point of 235 to 245 °C.
`CC1Cc2c(N=C=O)ccc(Cl)c2O1` (stereo unspecified) gave a melting point of 169 to 171 °C.
With `COCCOC(=O)NCC(C)(C)N` the melting point was 94 to 96 °C.
With `O=c1oc2cc(Cl)cnc2n1CO` the melting point was 137 to 139 °C.
For `Cn1cc(OS(C)(=O)=O)c(=O)c2ccc(S(C)(=O)=O)cc21`, the melting point was 258 to 260 °C.
With `CC12CCC(O)CC1=CCC1C2CCC2(C)C(=C(C#N)CC(=O)O)CCC12` (stereo unspecified) the melting point was 245 to 250 °C.
Work on `CCOc1ccc([C@H]2O[C@H](CC(=O)O)C(=O)N(CC(C)(C)C)c3ccc(Cl)cc32)c(OC)c1` (relative stereo) yielded a melting point of 230 to 232 °C.
In the case of `Nc1cc(I)c(I)cc1[N+](=O)[O-]`, the melting point is reported as 196 to 197 °C.
`Cc1ncc(-c2ccc(Cl)cc2)cc1C(=O)OC(C)(C)C` showed a melting point of 70 to 72 °C.
For `Cc1[nH]cnc1CSCCN=CNC#N`, the melting point was 168 to 170 °C.
Work on `CCCCCC(=O)OCC(CCn1cnc2c(=O)[nH]c(N)nc21)COC(=O)CCCCC` yielded a melting point of 198 °C.
Work on `CCc1cc(NC(=O)N2CCN(c3ccsc3)CC2)c(OC)nc1C` yielded a melting point of 108 to 110 °C.
In the case of `CN1CCN(CCc2ccc(Nc3ncc4c(n3)-c3ccccc3C(c3ccc(Cl)c(Cl)c3)C4)cc2)CC1` (stereo unspecified), the melting point is reported as 119 to 121 °C.
`CN1CCC23c4c5ccc(O)c4OC2C(OC2OC(C(=O)O)C(O)C(O)C2O)C=CC3C1C5` (stereo unspecified) showed a melting point of 240 to 243 °C.
With `C=CCCCCc1ccc(C(=O)O)cc1` the melting point was 79 to 82 °C.
`CN(C)C(=O)Nc1cccc(C#N)n1` showed a melting point of 125 °C.
`COc1ccc2c(c1)S(=O)(=O)N(C(C)C)C2=O` gave a melting point of 188 °C.
With `Nc1nc(-n2cc(C(=O)O)c(=O)c3cc(F)c(F)c(Cl)c32)c(Cl)cc1F` the melting point was 280 °C.
Work on `COc1cc(OC)nc(Cc2ccccc2N)n1` yielded a melting point of 82 to 84 °C.
`CC(=O)N1C(C(=O)NC2CCC(O)CC2)C(c2cccc(Cl)c2F)C2(C(=O)Nc3cc(Cl)ccc32)C1CC(C)(C)C` (stereo unspecified) showed a melting point of 220 °C.
For `CCCC(=O)Nc1n[nH]c2cc(-c3ccc(O)cc3)ccc12`, the melting point was 235 °C.
`CN(C)CC1(C2(O)CCCCC2)Cc2cc3c(cc21)N(C)CC3` (stereo unspecified) gave a melting point of 121 to 124 °C.
Work on `Cn1c(CO)nc2ccc(Sc3ccccc3)nc21` yielded a melting point of 119 to 120 °C.
Work on `CCCOc1ccc(-c2scc(-c3ccccc3Cl)c2CC(=O)NC(=N)NCCCO)cc1C` yielded a melting point of 73 to 76 °C.
With `CCCOc1cc(Br)ccc1-c1nc2cc3ncn(Cc4ccc(F)cc4)c3cc2c(=O)[nH]1` the melting point was 295 to 297 °C.
Work on `O=S(=O)(Nc1cccnc1Nc1ccccc1)c1ccccc1` yielded a melting point of 148 to 150 °C.
For `Clc1ccc(CC(OC2CCCC(Cn3ccnc3)O2)c2ccccc2)c(Cl)c1` (stereo unspecified), the melting point was 118 to 120 °C.
For `NS(=O)(=O)c1cc(C(=O)O)cc(NCc2ccccc2)c1-c1ccccc1`, the melting point was 221 to 222 °C.
`O=C1c2ccccc2C(=O)N1CCN1CCN(C(c2ccccc2)c2ccccn2)CC1` (stereo unspecified) showed a melting point of 114 to 117 °C.
In the case of `NC(=O)NCCC(F)=C(F)F`, the melting point is reported as 86 to 88 °C.
Work on `Cc1ccc(CC2(O)CCNCC2)cc1` yielded a melting point of 118 to 121 °C.
In the case of `COC1=CC(=O)C(O)=C(CCCCCCCC(O)C(O)CCCCCCCC2=C(O)C(=O)C=C(OC)C2=O)C1=O` (stereo unspecified), the melting point is reported as 132 to 134 °C.
In the case of `CC(=O)SC(CC(=O)c1ccc(Oc2ccccc2)cc1)C(=O)O` (stereo unspecified), the melting point is reported as 106 °C.
`CC(=O)Nc1ccc(Cl)cc1C(=O)c1ccccc1Cl` showed a melting point of 108 to 110 °C.
For `NCCc1c[nH]c2ccc3c(=O)n(CCc4ccccc4)ccc3c12`, the melting point was 162 to 166 °C.
With `COc1cc(Nc2c(C#N)cnc3cc(Cl)c([N+](=O)[O-])cc23)cc(OC)c1OC` the melting point was 215 to 217 °C.
With `O=S(=O)(O)c1cc(O)ccc1O` the melting point was 164 to 167 °C.
Compound `NC(=S)Nc1nncs1` has a melting point of 253 °C.
For `CCn1c(C)c(C(c2ccco2)S(=O)(=O)c2ccc(C)cc2)c2ccccc21` (stereo unspecified), the melting point was 99.8 to 105 °C.
With `CCCCN(C(=O)c1ccccc1)C1CC(C)(C)N(OC(=O)c2ccccc2)C(C)(C)C1` the melting point was 155 to 159 °C.
`Cc1cc(C)c2c(c1)nc(N(CCN1CCOCC1)C1CCNCC1)n2Cc1nc(C)ccc1O` gave a melting point of 226 °C.
Compound `CCCC(=O)Nc1ccc2oc3c(c2c1)CCCC3` has a melting point of 133 to 135 °C.
Compound `OCc1ccc(N2CCN(Cc3ccc4ccccc4n3)CC2)cc1` has a melting point of 126 to 127 °C.
`CC(C)(C)OC(=O)N1CCC2(CC1)C(=O)Nc1ccccc12` showed a melting point of 138 to 140 °C.
In the case of `CC(=O)Nc1ccc(-c2cc(C(=O)c3ccc(Cl)cc3Cl)sc2N2CCOCC2)cc1`, the melting point is reported as 145 °C.
With `CCCCOC(=O)c1ccc2ccc(C=O)nc2c1OC(=O)C(C)(C)C` the melting point was 108 °C.
Compound `Cc1oc(-c2ccccc2)nc1CCOc1ccc(C[C@@H](C(=O)O)N2CCN(S(=O)(=O)c3ccccc3[N+](=O)[O-])CC2)cc1` has a melting point of 171 to 173 °C.
For `Cc1ccc(S(=O)(=O)Nc2cccc(-c3cc(O)c(SCCc4ccccc4)c(=O)o3)c2)cc1`, the melting point was 133 to 135 °C.
For `CNc1nc(C(C)c2ccc(-c3ccccc3)c(F)c2)c(C(=O)NO)s1` (stereo unspecified), the melting point was 118 °C.
With `CCOC(=O)COc1ccc(C[C@H](C)NS(=O)(=O)c2ccccc2)cc1` the melting point was 109 to 110 °C.
Compound `CCCC1=C(c2ccc(F)cc2)C(=NO)CC1` has a melting point of 165 to 166 °C.
`N#Cc1cccc(CCc2nnc(-c3ccc4nccn4c3)o2)c1` gave a melting point of 168 to 169 °C.
`Cc1ccc(S(=O)(=O)NC(=O)C2C(=O)CC3(CCCCC3)CC2=O)cc1` showed a melting point of 150 to 152 °C.
`COC(=O)COc1ccc(CC2SC(=O)N(C(c3ccccc3)(c3ccccc3)c3ccccc3)C2=O)cc1` (stereo unspecified) showed a melting point of 158 to 162 °C.
`Cc1ccc2c(c1)C(=O)c1ccc(-c3nnn[nH]3)cc1S2(=O)=O` gave a melting point of 267 °C.
With `CNC(=O)c1cnn2c(C(=O)N3CCNCC3)c(Cc3cccc(F)c3C)c(-c3ccccc3)c2c1` the melting point was 208 to 210 °C.
For `CCOc1cc(C=[N+]([O-])C2CCC2)ccc1OC`, the melting point was 113 °C.
Work on `CC1(C)OC(c2ccc(S(N)(=O)=O)cc2)=C(c2ccc3c(c2)OCO3)C1=O` yielded a melting point of 178 to 179 °C.
For `CCCCCCCCCCCCCCCCOCCC(O)CO` (stereo unspecified), the melting point was 60 to 61 °C.
With `Cc1c2c(c(-c3ccc(C(F)(F)F)cc3)c3c4c(ccc13)OCO4)CNC2=O` the melting point was 303 to 305 °C.
Compound `COc1ccc(-c2[nH]nc3c2C(=O)c2c(NC(=O)Cc4ccc(NC(C)=O)cc4)cccc2-3)cc1` has a melting point of 268 °C.
With `Cc1c(C(=O)c2cccs2)cccc1C(C)C(=O)O` (stereo unspecified) the melting point was 100 °C.
`Nc1sc(-c2ccccc2)c(CN2CCCCC2)c1C(=O)c1ccc(Cl)cc1` gave a melting point of 185 to 187 °C.
In the case of `NC(=O)c1ncn2c1NCC=C2c1cccc(C(F)(F)F)c1`, the melting point is reported as 192 to 194 °C.
For `O=C(CNCc1ccccc1)CP(=O)(O)C(Cl)(Cl)Cl`, the melting point was 194 to 195 °C.
Work on `COc1cc(O)c(C(=O)c2ccccc2)c(Cl)c1` yielded a melting point of 92 to 94 °C.
Work on `CCCC(=O)c1cc(-c2ccccc2)no1` yielded a melting point of 89 to 90 °C.
Compound `CCOP(=O)(/C=C/c1cn(-c2ccccc2)nc1OCc1ccccc1)OCC` has a melting point of 89 to 90 °C.
`O=[N+]([O-])c1cc(Cl)cc2cccnc12` gave a melting point of 149 to 155 °C.
`CC(C#N)c1cccc(C(=O)c2ccccc2)c1` (stereo unspecified) gave a melting point of 88 to 94 °C.
For `CSc1nc(C)cc(Cl)n1`, the melting point was 37 to 38 °C.
Work on `COc1cccc(-c2nc(N)ncc2-c2ccc(=O)[nH]n2)c1` yielded a melting point of 134 °C.
